The text below walks through data of patent US11390603B2, “Crystalline forms of a biphenyl compound” (THERAVANCE BIOPHARMA R&D IP, LLC, priority 2005, dated 2022).

The experiment relates to guinea pigs. In words: Duration of bronchoprotection in guinea pig model of acetylcholine-induced bronchoconstriction. In kind it is in vivo. As to conditions: 1.5 hours post-dose, inhalation. The protocol: Groups of six male guinea pigs (Duncan-Hartley (HsdPoc:DH) Harlan, Madison, Wis.) weighing between 250 and 350 g are individually identified by cage cards. Throughout the study animals are allowed access to food and water ad libitum.
Test compounds are administered via inhalation over 10 minutes in a whole-body exposure dosing chamber (R&S Molds, San Carlos, Calif.). The dosing chambers are arranged so that an aerosol was simultaneously delivered to 6 individual chambers from a central manifold. Guinea pigs are exposed to an aerosol of a test compound or vehicle (WFI). […] This is measured gravimetrically by comparing pre-and post-nebulization weights of the filled nebulizer.
The bronchoprotective effects of test compounds administered via inhalation are evaluated using whole body plethysmography at 1.5, 24, 48 and 72 hours post-dose.
Forty-five minutes prior to the start of the pulmonary evaluation, each guinea pig is anesthetized with an intramuscular injection of ketamine (43.75 mg/kg), xylazine (3.50 mg/kg) and acepromazine (1.05 mg/kg). […] The depth of anesthesia is monitored and adjusted if the animal responds to pinching of its paw or if the respiration rate is greater than 100 breaths/minute. […]
Starting this program initiates the experimental protocol and data collection. […] By integrating this signal over time, a measurement of […] is calculated for each breath. […]

Take `CN(CCN1CCC(OC(=O)Nc2ccccc2-c2ccccc2)CC1)C(=O)c1ccc(CN2CCC(C(N)=O)CC2)cc1` [compound of formula I, biphenyl-2-ylcarbamic acid 1-(2-{[4-(4-carbamoylpiperidin-1-ylmethyl)benzoyl]methylamino}ethyl)piperidin-4-yl ester]: the “PD2(50) for ACh-induced bronchoconstriction” value is on record as “less than 200 μg/mL”.
